Measured values from US10322105B2, “Pharmaceutical composition containing Ginkgolide B and ADP receptor antagonist, preparation method thereof and use thereof” (CHENGDU BAIYU PHARMACEUTICAL CO., LTD, priority 2014, dated 2019).
Structures can show the parent of a compound that is named as a salt. Where two headings read alike, the source gives them in different places.

Experiments:
[1] = cited from earlier work
[2] = test system: platelet aggregation induced by PAF; assay: Platelet aggregation rate induced by PAF in platelet-rich plasma of rabbits after 7 days of administration; type: in vivo, Japanese large-ear white rabbits; conditions: 5.0 mg/kg once daily for 7 days; for Platelet aggregation rate 1 min / Platelet aggregation rate 5 min / Maximum platelet aggregation rate (MAX): PRP, x ± s, n = 8; for Platelet aggregation rate 1 min: 1 min after addition of 10 μL PAF; for Platelet aggregation rate 5 min: 5 min after addition of 10 μL PAF; for Maximum platelet aggregation rate (MAX): after addition of PAF; for inhibition at 5 mg/kg: Oryctolagus cuniculus, Platelet, 168 h
Description: (§1) All groups were administered with a clinically used route and dosage for 7 days continuously.
After 7 days of administration, 10.5 ml of blood was taken from the heart of each animal, wherein 1.5 ml of […] was used for taking serum and the rest 9 ml of […] was subjected to 3.8% sodium citrate at 1:9 for anticoagulation, centrifuging for 10 minutes at 800 r/min, and taking the supernatant to obtain platelet-rich plasma (PRP), wherein 100 μl of the PRP was taken for electron microscope examination, and the rest of the PRP was used for detecting of the platelet aggregation rate; the remaining portion was centrifuged for 15 min at a speed of 3000 r/min, and platelet-depleted plasma (PPP) was obtained. PPP was used to adjust the number of platelet in PRP, to be at 360×10^9/L. The platelet aggregation rate was recorded at 1 min, 5 min of addition of 10 μL of PAF inducer and the maximum platelet aggregation rate was recorded after the addition of PAR

platelets = assay: Scanning electron microscopy study of platelet morphology after addition of PAF; type: in vivo, Japanese large-ear white rabbits; conditions: rabbits, 5.0 mg/kg once daily for 7 days; PRP after addition of PAF, 100 platelets observed
Description: as §1
The 100 μL of PRP was placed in a silicification EP tube, and 1 μL of PAF was added to induce aggregation of platelets for 15 minutes, the PRP was then placed on a copper mesh sample support laid with a Formar membrane, incubating at 37° C. for 10 min, washing with ultrapure water, fixing with 3% glutaraldehyde for 5 minutes, rewashing with ultrapure water. After the sample on the copper mesh was naturally dried, a layer of 20 nm gold film was plated on the surface of the sample, and the cell morphology was studied with an electron microscope S-3000N. 100 of platelets were observed and calculated the ratio of each type of platelet. The types of platelet under the electron microscope includes: (1) Circle type appears circular or oval, with small size, compact center, large core and low and narrow transparent periphery zone. (2) Tree like type has a single or a plurality of elongated or sheet-shaped sometimes branched foot protrudes from the dense center. (3) Flat type has a dense core in the center and a wide transparent peripheral zone which has a smooth periphery or small bulges. (4) Aggregated-type is usually composed of several to dozens of platelets, with different sizes of the aggregates, wherein the platelets are mutually connected, some of the platelets are integrally fused into a whole, and the foot processes of the peripheral part are prominent.

[3] = PLATO study, cited from earlier work
[4] = in vivo; cited from earlier work
[5] = PAF-induced, relative to Saline group

For COC(=O)[C@H](c1ccccc1Cl)N1CCc2sccc2C1 [Clopidogrel, (S)-alpha-(2-chlorphenyl)-6,7-dihydrothieno [3,2-c]pyridine-5-(4H)acetate hydrogen sulfate], the Severe bleeding rate ([1]; Clopidogrel-treated patients) is given as 1.4%, the “Common side effects: abdominal pain” value ([1]; clinical trial (CAPRIE)) is given as 6% and the “Common side effects: diarrhea” value ([1]; clinical trial (CAPRIE)) is given as 5%. For the same molecule, the “Common side effects: digestive tract hemorrhage” value ([1]; clinical trial (CAPRIE)) was 2%, the “Common side effects: dyspepsia” value ([1]; clinical trial (CAPRIE)) was 5% and the “Common side effects: intracranial hemorrhage” value ([1]; clinical trial (CAPRIE)) was 0.4%. For the same molecule, the “Common side effects: rash” value ([1]; clinical trial (CAPRIE)) was 4%, the “Common side effects: serious granulocyte reduction” value ([1]; clinical trial (CAPRIE)) was 0.04% and the “Platelet aggregation rate 1 min” value [2] was 35.27 ± 6.08. For the same molecule, the “Platelet aggregation rate 5 min” value [2] was 53.73 ± 8.46, the “Maximum platelet aggregation rate (MAX)” value [2] was 60.96 ± 9.50 and the inhibition at 5 mg/kg [2, 5] was 13.2%. The “Types of morphology: Circle” value (platelets) was 7.7 ± 7.8%, the “Types of morphology: Flat” value (platelets) was 30.7 ± 13.6 % and the “Types of morphology: Tree like” value (platelets) was 24.6 ± 8.8 %.

For CCCSc1nc(N[C@@H]2C[C@H]2c2ccc(F)c(F)c2)c2nnn([C@@H]3C[C@H](OCCO)[C@@H](O)[C@H]3O)c2n1 [Ticagrelor, (1S,2S,3R,5S)-3-[7-[(1R,2S)-2-(3,4-Difluorophenyl)cycloprolamino]-5-(propylsulfanyl)-3H-[1,2,3]triazolo [4,5-d]pyrimidin-3-yl]-5-(2-hydroxyethoxy) cyclopenane-1,2-diol], the “Occurrence rate of interventricular interval” value ([3]; acute stage) is given as 60%, the “Occurrence rate of interventricular interval” value ([3]; after one month) is given as 2.2% and the “Platelet aggregation rate 1 min” value [2] is given as 34.21 ± 5.75. The “Platelet aggregation rate 5 min” value [2] was 60.50 ± 9.24, the “Maximum platelet aggregation rate (MAX)” value [2] was 67.74 ± 9.36 and the inhibition at 5 mg/kg [2, 5] was 3.53%. The “Types of morphology: Circle” value (platelets) was 6.2 ± 7.5%, the “Types of morphology: Flat” value (platelets) was 33.6 ± 10.7 % and the “Types of morphology: Tree like” value (platelets) was 21.4 ± 9.4 %.

With CC1C(=O)OC2C(O)C34C5CC(C(C)(C)C)C36C(OC(=O)C6O)OC4(C(=O)O5)C12O (centres unmarked) [Ginkgolide B] the “Platelet aggregation inhibition rate” value [2, 5] was 44.66%, the “Platelet aggregation rate 1 min” value [2] was 21.36 ± 4.15 and the “Platelet aggregation rate 5 min” value [2] was 33.54 ± 5.48. The “Types of morphology: Circle” value (platelets) was 31.6 ± 6.4 %, the “Types of morphology: Flat” value (platelets) was 46.1 ± 8.3 % and the “Types of morphology: Tree like” value (platelets) was 15.8 ± 6.8 %.

In the case of Clc1ccccc1CN1CCc2sccc2C1 [Ticlopidine], the “Occurrence rate of common side effects (digestive tract symptoms and rash)” value [4] is listed as “about 10%”.

For CC(=O)Oc1cc2c(s1)CCN(C(C(=O)C1CC1)c1ccccc1F)C2 (centres unmarked) [Prasugrel], the “Platelet aggregation rate 1 min” value [2] was 37.14 ± 8.59, the “Platelet aggregation rate 5 min” value [2] was 55.56 ± 7.53 and the “Maximum platelet aggregation rate (MAX)” value [2] was 63.12 ± 5.47. The inhibition at 5 mg/kg [2, 5] was 10.1%, the “Types of morphology: Circle” value (platelets) was 9.9 ± 7.6 % and the “Types of morphology: Flat” value (platelets) was 25.4 ± 8.7 %. For the same molecule, the “Types of morphology: Tree like” value (platelets) was 19.6 ± 6.8 %.
